Literature values in PMC6271218, “Pharmacokinetics, Tissue Distribution and Excretion of Verticinone from F. hupehensis in Rats” (Molecules, 2014).

Set-up: method as in PMID 20446906
Conditions: same dose administered; cited from earlier work

Structure (SMILES): C[C@@H](Oc1cc(-c2cnn(C3CCNCC3)c2)cnc1N)c1c(Cl)ccc(F)c1Cl [PF-02341066]
- plasma concentrations, fold higher in male than in female rats: at least 2 fold
